According to patent US4812443A, “Methods for enhancing differentiation and proliferation of hematopoietic progenitor cells” (Kuraray Co., Ltd., priority 1984, dated 1989):
“Also recorded” adds a separate entry of the source.

Key:
[1] = tested on: blood coagulation system; assay: Effect on the blood coagulation system in rats (Quick's one-step method); assay type: in vivo, rat (Wistar-strain); settings: 150, 300 and 600 mg/kg; two hours after administration; vs control
Excerpt: (§1) Since the dolichol is a water-insoluble oily liquid, it was used as a solution in sesame oil in the case of oral administration, and as a suspension in a nonionic surfactant (HCO-60, a trade name for a product of Nikko Chemical Co., Ltd.) in the case of intraperitoneal administration and in an in vitro test in the following experiment.
(§2) In the following experiment, ddY-strain male mice, Wistar-strain male rats (Shizuoka Laboratory Animal Center), Japanese white male rabbits (Carely) and Hartley-strain male guinea pigs (Clea Japan Inc.) were used. The animals were kept under conditions including a temperature of 23±1° C., a humidity of 55±10%, an illuminating time (7:00 am to 9.00 pm) and 15 ventilations per hour. The mice and rats were fed with solid feeds MF (a product of Oriental Yeast Co., Ltd.) and the guinea pigs and rabbits were fed with solid feeds GM-3 and RM-1 (Funabashi Farm Co.). They were allowed to take tap water freely. The animals were preliminarily kept for more than one week, and those which were healthy in general conditions were used in the experiments.
Wistar-strain male rats (180-210 g), 6 per group, were used. Two hours after administration of dolichol to rats, the blood was taken from the abdominal main vein of the rats, and the prothrombin time was measured by the Quick's one-step method.

[2] = Water solubility; assay type: physicochemical
[3] = tested on: extracted spermiduct; assay: Peripheral action, extracted spermiduct of rats; set-up: species or system rat (Wistar-strain); settings: up to 10^-4 g/ml, 32° C.
Excerpt: as §1, §2
Wistar-strain male rats (180 to 200 g), 3 per group, were used. The extracted spermiduct samples were suspended in Locke-Ringer solution at 32° C. The contraction of the spermiduct was recorded by the same method as in the preceding section. […]

[4] = tested on: extracted trachea; assay: Peripheral action, extracted trachea of guinea pigs; set-up: species or system guinea pig (Hartley-strain); settings: up to 10^-4 g/ml, 37° C.
Excerpt: as §1, §2
Hartley-strain male guinea pigs (350-400 g), 3 per group, were used. The extracted trachea was suspended in Locke-Ringer solution at 37° C. through which air was introduced. The contraction of the trachea was recorded in the same way as in the case of the extracted ileum. […]

[5] = tested on: extracted atrium; assay: Peripheral action, extracted atrium of guinea pigs; set-up: species or system guinea pig (Hartley-strain); settings: 10^-6, 10^-5 and 10^-4 g/ml; 30° C.
Excerpt: as §1, §2
Hartley-strain male guinea pigs (350-400 g), 3 per group, were used. […] The contraction of the atria was recorded on an ink-writing oscillograph (EMP-3004, Nippon Photoelectric Co.) through an FD pick-up (TB-611T, Nippon Photoelectric Co.). […]

[6] = tested on: blood sugar; assay: Blood sugar lowering action in rats (glucose-oxidase method); assay type: in vivo, rat (Wistar-strain); settings: 150, 300 and 600 mg/kg; two hours after administration; vs control
Excerpt: as §1, §2
Wistar-strain male rats (180-210 g), 6 per group, were used. Two hours after administration of dolichol to the rats, the blood was taken from the abdominal main vein of the rats, and the blood sugar level was measured by the glucose-oxidase method.

[7] = tested on: mice; assay: Acute toxicity of dolichol in mice; assay type: in vivo, mouse (ddY-strain); settings: 5,000 mg/kg orally or 1,000 mg/kg intraperitoneally
Procedure: (1) Dolichol synthesized in Referential Example 1 below was used as a solution in sesame oil in the case of oral administration, or as a suspension in HCO-60 (a trade name for a nonionic surfactant made by Nikko Chemical Co., Ltd.) in the case of intraperitoneal administration.
ddY-strain mice (21-27 g), 6 per group, were used. Dolichol was administered to the mice in a dose of 5,000 mg/kg orally, or 1,000 mg/kg intraperitoneally on the 1st day of the test, and the mice were then observed for toxic symptoms and mortality for seven days. The body weights of the mice were measured before administration and on the 1st and 7th days. Control groups were each given sesame oil or HCO-60, and observed and weighed in the same way as in the case of the groups to which dolichol was administered. On the 7th day, all the mice were dissected and visually observed.

[8] = tested on: reserpine-induced blepharoptosis; assay: Reserpine antagonistic action in mice; assay type: in vivo, mouse (ddY-strain); settings: 150, 300 and 600 mg/kg; reserpine 4 mg/kg i.p.; one hour after administration; vs control
Excerpt: as §1
as §2, with “The animals were preliminarily kept for more than one week, and those which were healthy in general conditions were used in the experiments.” left out
ddY-strain male mice (27-30 g), 6 per group, were used. […] One hour after the administration of dolichol, the degree of blepharoptosis in the mice was observed and recorded in accordance with the Rubin's standards of evaluation (0: normal opening of the eyes, 1: 1/4 blepharoptosis, 2: 1/2 blepharoptosis, 3: 3/4 blepharoptosis, 4: complete blepharoptosis).

[9] = Diuretic action in rats; assay type: in vivo, rat (Wistar-strain); settings: 150, 300 and 600 mg/kg; 6 hours after administration; vs control
Excerpt: as §1, §2
Wistar-strain male rats (80-90 g), 6 per group, were used. Immediately after administration of dolichol to the rats, normal saline solution was orally administered to the rats in a dose of 2.5 ml/100 g. […] Urine was taken 6 hours after administration of dolichol, and its amount was measured.

[10] = tested on: acetic acid writhing; assay: Analgesic action in mice (acetic acid writhing method); assay type: in vivo, mouse (ddY-strain); settings: 150, 300 and 600 mg/kg; one hour before acetic acid; vs control
Excerpt: as §1, §2
ddY-strain male mice (27-30 g), 6 per group, were used. One hour after administration of dolichol to the mice, 0.6% acetic acid was intraperitoneally administered to the mice in a dose of 0.1 ml/10 g. […] The inhibitory action on acetic acid writhing was thus examined.

[11] = tested on: mice; assay: Neuropharmacological test using mice (Irwin's method); assay type: in vivo, mouse (ddY-strain); settings: 150, 300 and 600 mg/kg i.p.
Excerpt: as §1, §2
ddY-strain male mice, 6 per group, were used, and their changes in behavior, nervous symptoms, autonomic nervous symptoms and toxic symptoms were observed, analyzed and recorded in accordance with the Irwin's method of observation. […]

Substance: dolichol
- Prothrombin time [1]: tended to become longer; also recorded: no significant difference was noted
- Water solubility [2]: water-insoluble
- Antagonistic action against noradrenalin ([3]; extracted spermiduct): nor any antagonistic action
- Direct action on extracted spermiduct [3]: no direct action
- Antagonistic action against isoproterenol ([4]; extracted trachea): nor antagonistic action
- Direct action on extracted trachea [4]: no direct action
- Chronotropic action [5]: nor chronotropic action
- Inotropic action [5]: no inotropic
- Blood sugar level [6]: no significant difference was noted
- Changes in body weight ([7]; 1st and 7th days, vs control): no sigificant difference was noted
- Abnormality in dissection ([7]; 7th day): No abnormality was noted
- Mortality ([7]; seven days): no case of death in all of the mice tested
- Antagonistic action against reserpine-induced blepharoptosis [8]: no antagonistic action
- Diuretic action (amount of urine) [9]: no significant difference was noted
- Inhibitory action on acetic acid writhing [10]: no significant difference was noted
- Effect on behaviors, nervous symptoms, autonomic nervous symptoms and toxic symptoms [11]: no effect was observed
